# From paper PMC7887755, “Structure–Activity Relationships of Pyrazolo[1,5-a]pyrimidin-7(4H)-ones as Antitubercular Agents” (ACS Infectious Diseases, 2021)
# “And” between values parts separate entries of the source, which are not always exact repeats. Equal values may be shown once.
# Tests used:
# [1] = tested on: Mtb strain H37Rv cydC::aph; format: cell-based, Mycobacterium tuberculosis
# [2] = tested on: P19^R strain rv1751 L399W; format: cell-based, Mycobacterium tuberculosis
# P19^R strain rv1751 V96L = format: cell-based, Mycobacterium tuberculosis
# [3] = tested on: P19^R strain rv1751 H97Y/N; format: cell-based, Mycobacterium tuberculosis
# [4] = tested on: P19^R strain rv1751 L250Q; format: cell-based, Mycobacterium tuberculosis
# [5] = tested on: P19^R strain rv1751 P152S; format: cell-based, Mycobacterium tuberculosis
# [6] = tested on: P19^R strain rv1751 A434T; format: cell-based, Mycobacterium tuberculosis
smiles,measurement,setting,value
"Cc1nn2c(=O)cc(-c3ccc(F)c(F)c3)[nH]c2c1-c1ccccc1 [Compound P19, 5-(3,4-Difluorophenyl)-2-methyl-3-phenylpyrazolo[1,5-a]pyrimidin-7(4H)-one]",MIC CydKO,[1],3.13 µM
same,MIC L399W,[2],12.5 µM
same,fold change L399W,[2],16
same,MIC V96L,P19^R strain rv1751 V96L,2.3 µM
same,fold change V96L,P19^R strain rv1751 V96L,3
same,MIC H97Y/N,[3],1.56 µM
same,fold change H97Y/N,[3],2
same,MIC L250Q,[4],2.3 µM
same,fold change L250Q,[4],3
same,MIC P152S,[5],1.56 µM
same,fold change P152S,[5],2
same,MIC A434T,[6],1.56 µM
same,fold change A434T,[6],2
same,frequency of resistant clones,Mtb H37Rv,3 × 10^–8 and 4 × 10^–9
"O=c1cc(CC2CCCCC2)[nH]c2c(-c3ccc(Cl)cc3)cnn12 [Compound 2, 3-(4-Chlorophenyl)-5-(cyclohexylmethyl)pyrazolo[1,5-a]pyrimidin-7(4H)-one, reference compound]",MIC CydKO,[1],25.0 µM
same,MIC L399W,[2],0.39 µM
same,fold change L399W,[2],1
same,MIC V96L,P19^R strain rv1751 V96L,1.2 µM
same,fold change V96L,P19^R strain rv1751 V96L,3
same,MIC H97Y/N,[3],0.39 µM
same,fold change H97Y/N,[3],1
same,MIC L250Q,[4],1.2 µM
same,fold change L250Q,[4],3
same,MIC P152S,[5],1.2 µM
same,fold change P152S,[5],3
same,MIC A434T,[6],1.2 µM
same,fold change A434T,[6],3
"NNC(=O)c1ccncc1 [INH, isoniazid, reference compound]",MIC CydKO,[1],0.30 µM
same,MIC L399W,[2],0.04 µM
same,MIC V96L,P19^R strain rv1751 V96L,0.04 µM
same,MIC H97Y/N,[3],0.04 µM
same,MIC L250Q,[4],0.04 µM
same,MIC P152S,[5],0.04 µM
same,MIC A434T,[6],0.04 µM
"COc1ccc(-c2cc(=O)n3nc(C)c(-c4ccc(F)cc4)c3[nH]2)cc1 [Compound 4, 3-(4-Fluorophenyl)-5-(4-methoxyphenyl)-2-methylpyrazolo[1,5-a]pyrimidin-7(4H)-one, reference compound]",MIC CydKO,[1],9.40 µM
same,MIC L399W,[2],3.13 µM
same,fold change L399W,[2],2
same,MIC V96L,P19^R strain rv1751 V96L,2.3 µM
same,fold change V96L,P19^R strain rv1751 V96L,1.5
same,MIC H97Y/N,[3],1.56 µM
same,fold change H97Y/N,[3],1
same,MIC L250Q,[4],4.7 µM
same,fold change L250Q,[4],3
same,MIC P152S,[5],2.3 µM
same,fold change P152S,[5],1.5
same,MIC A434T,[6],2.3 µM
same,fold change A434T,[6],1.5
"Cc1nn2c(=O)cc(-c3ccc(Cl)c(Cl)c3)[nH]c2c1-c1ccc(F)cc1 [Compound P24, 5-(3,4-Dichlorophenyl)-3-(4-fluorophenyl)-2-methylpyrazolo[1,5-a]pyrimidin-7(4H)-one]",MIC L399W,[2],18.8 µM
same,fold change L399W,[2],12
same,MIC V96L,P19^R strain rv1751 V96L,7.82 µM
same,fold change V96L,P19^R strain rv1751 V96L,5
same,MIC H97Y/N,[3],6.25 µM
same,fold change H97Y/N,[3],4
same,MIC L250Q,[4],6.26 µM
same,fold change L250Q,[4],4
same,MIC P152S,[5],3.90 µM
same,fold change P152S,[5],2.5
same,MIC A434T,[6],3.12 µM
same,fold change A434T,[6],2
"Cc1nn2c(=O)cc(-c3ccccc3)[nH]c2c1-c1ccccc1 [Compound 1, 2-Methyl-3,5-diphenylpyrazolo[1,5-a]pyrimidin-7(4H)-one]",MIC CydKO,[1],12.5 µM
same,MIC L399W,[2],12.5 µM
same,fold change L399W,[2],10
same,MIC V96L,P19^R strain rv1751 V96L,2.3 µM
same,fold change V96L,P19^R strain rv1751 V96L,2
same,MIC H97Y/N,[3],1.56 µM
same,fold change H97Y/N,[3],1.3
same,MIC L250Q,[4],3.13 µM
same,fold change L250Q,[4],2.6
same,MIC P152S,[5],2.3 µM
same,fold change P152S,[5],2
same,MIC A434T,[6],1.56 µM
same,fold change A434T,[6],1.3
